Columns and labels:
[1] = system: patients presenting a depressive disorder; assay: SCL-90-R (Symptom Checklist 90 Revised) scale in patients treated with flumazenil; type: in vivo, human; details: for SCL-90-R at the end: after third administration of flumazenil 2 mg/day, 0.2 mg every 3 minutes
Procedure: (§1) Three patients presenting a depressive disorder were subjected to treatment.
(§2) Flumazenil was administered in doses of 0.2 mg every 3 minutes (up to a total of 2 mg/day). […] Before starting the first administration of flumazenil, a test consisting of the administration of a bolus of 0.1 mg of flumazenil was conducted to evaluate the reaction of the subject.

[2] = system: patients presenting a depressive disorder; details: in vivo
Procedure: as §1
During the assessment prior to the admission, a thorough psychopathological and medical evaluation was conducted first thing in the morning (9:00 AM). The medical examination included an electrocardiogram and a complete blood analysis, in which the different cell series (red blood cells, white blood cells and platelets) and the biochemical profile (glucose, creatinine, urea, cholesterol and the fractions thereof, triglycerides, alkaline phosphatase, GOT, GPT, GGT, LDH, total proteins, etc.) were studied.
Flumazenil was administered in doses of 0.2 mg every 3 minutes (up to a total of 2 mg/day). This quantity per dose was established to reduce as much as possible undesirable side effects related to possible interactions with other drugs or psychopathologies. Before starting the first administration of flumazenil, a test consisting of the administration of a bolus of 0.1 mg of flumazenil was conducted to evaluate the reaction of the subject.

[3] = system: patients presenting a depressive disorder; assay: Clinical observation of mood, attention and sleep after administration of flumazenil; type: in vivo, human; details: for changes in mood: three patients
Procedure: as §1, §2

SMILES: CCOC(=O)c1ncn2c1CN(C)C(=O)c1cc(F)ccc1-2 [Flumazenil, 8-fluoro-5,6-dihydro-5-methyl-6-oxo-4H-imidazol[1,5-α][1,4]benzodiazepine-3-carboxylic acid ethyl ester]
- SCL-90-R depression values ([1]; after third administration, versus start): reduction in the depression values
- SCL-90-R at the end ([1]; patient P01 (associated cocaine consumption), SCL-90-R at the start 78): 0
- SCL-90-R at the end ([1]; patient P02 (associated cocaine consumption), SCL-90-R at the start 48): 30
- SCL-90-R at the end ([1]; patient P03 (associated alcohol consumption), SCL-90-R at the start 92): 25
- blood pressure values [2]: remained within the range of normal
- cardiovascular values [2]: remained within normal parameters
- cardiovascular values (heart rate and blood pressure) [2]: did not undergo significant changes
- heart rate values [2]: did not undergo any significant increases
- secondary symptoms [2]: Secondary symptoms did not occur
- symptoms associated to administration [2]: no symptoms associated to such administration
- mood of the treated patients ([3]; 2 mg/day divided into doses of 0.2 mg every 3 minutes): substantially improves the mood
- attention, concentration and other superior faculties ([3]; after third administration): improvement of attention, concentration and other superior faculties being more evident
- existing sleep disorders ([3]; after third administration): completely corrected
- sleep (early waking) ([3]; patient P01, first night after first administration): did not occur on this first night
- sleep (difficulty in falling asleep) ([3]; patient P03, first night after first administration): fell asleep early in the night
- changes in mood ([3]; after first administration, with respect to time of admission): feeling of wellbeing and more calmness
- changes in mood ([3]; after second administration): better mood
- time until induced improvement reaches a clinical level ([3]; treatment of depressive disorders): less than one week

Source: patent US20090318426A1, “USE OF FLUMAZENIL IN THE MANUFACTURE OF A MEDICAMENT FOR THE TREATMENT OF DEPRESSIVE DISORDERS” (priority 2006, published 2009)
